Legend:
HONE1 = assay: MTT cytotoxicity assay, HONE1; assay type: cell-based; conditions: Homo sapiens, HONE1, 72 h, mean ± SD
Description: (§1) Prior to determining the combined inhibitory effects against NPC CDDP-resistance cells, the cytotoxicity effects of these 8 derivatives were evaluated against three NPC cell lines (CNE2, HONE1, and HK-1) and CDDP resistance cell line (CNE2/CDDP) by using MTT (3-(4,5-dimethyl-2-thiazolyl)-2,5-diphenyl-2-H-tetrazolium bromide) assays. […] Moreover, a liver normal cell LO2 was involved to evaluate the selectivity of these 8 compounds by using MTT assays.
(§2) Nasopharyngeal carcinoma cells (CNE2, HONE1, and CNE2/CDDP) were purchased from Shanghai Aulu Biological Technologh Co., Ltd. (Shanghai, China). HK-1 cell was purchased from Shanghai Shunran Biological Technologh Co., Ltd. CNE2, HONE1, and HK-1 were cultured in DMEM medium supplemented with 10% fetal bovine serum, 1% penicillin-streptomycin. CDDP-resistant NPC cell CNE2/CDDP was cultured in DMEM medium supplemented with CDDP to sustain its drug resistance. Cell viability was detected using the MTT assay. All the 8 derivatives were resolved with DMSO to make a storage solution at 1 M, and CDDP was resolved with phosphate buffer saline (PBS) to make a storage solution at 100 mM. The maximum concentrations of these 8 derivatives and CDDP used in MTT assays were set as 1 mM and 100 µM diluted with DMEM medium, respectively. Medium with 0.1% DMSO was set as control. To begin, an initial MTT assay was conducted to evaluate the cytotoxicity of 3a~3h with a dose range of 50, 100, 200, 400, and 800 µM. Then, a more precise dose range was set to calculate the IC50 of each compound (For 3a~3e: 50, 100, 200, 400, 600, and 800 µM; for 3f~3h: 12.5, 25, 50, 100, 200, and 400 µM). Then, 5000 cells were seeded in a 96-well plate for each well and treated with respective compounds at different concentrations for 72 h following additional treatment with MTT for 2~3 h. Then, MTT was removed and 150 µL DMSO was added into each well and the absorption values were measured at 490 nm using a SpectraMAX M5plate reader (Silicon Valley, CA, USA).

HK-1 = assay: MTT cytotoxicity assay, HK-1; assay type: cell-based; conditions: HK-1, 72 h, mean ± SD
Description: as §1, §2

LO2 = assay: MTT cytotoxicity assay, LO2 normal liver cell; assay type: cell-based; conditions: Homo sapiens, L02, 72 h, mean ± SD
Description: as §1, §2

CNE2/CDDP = assay: MTT cytotoxicity assay, CNE2/CDDP; assay type: cell-based; conditions: Homo sapiens, CNE-2, 72 h, cisplatin resistant cell line, mean ± SD
Description: as §1, §2

CNE2 = assay: MTT cytotoxicity assay, CNE2; assay type: cell-based; conditions: Homo sapiens, CNE-2, 72 h, mean ± SD
Description: as §1, §2

| Structure (SMILES) | melting point | IC50 (HONE1) | IC50 (HK-1) | IC50 (LO2) | IC50 (CNE2/CDDP) | IC50 (CNE2) |
| --- | --- | --- | --- | --- | --- | --- |
| S=C1/C(=C/c2csc3ccccc23)CC[C@@H]2[C@H]3CCCN4CCC[C@@H](CN12)[C@@H]34 [3a] | – | 152 ± 8.4 µM | 179 ± 12.1 µM | 212 ± 15.3 µM | 375 ± 18.1 µM | 113 ± 7.2 µM |
| S=C1/C(=C/c2cccs2)CC[C@@H]2[C@H]3CCCN4CCC[C@@H](CN12)[C@@H]34 [3b] | – | 125 ± 6.3 µM | 208 ± 9.4 µM | 156 ± 11.7 µM | 583 ± 15.3 µM | 158 ± 11.3 µM |
| S=C1/C(=C/c2ccsc2)CC[C@@H]2[C@H]3CCCN4CCC[C@@H](CN12)[C@@H]34 [3c, 14-(thiophen-3-ylmethylene)thiomatrine] | 166.8 to 167.5 °C | – | 191 ± 11.3 µM | 285 ± 20.7 µM | 676 ± 23.8 µM | 144 ± 10.3 µM |

More lines, main results first:

| melting point | Structure (SMILES) | IC50 (HONE1) | IC50 (HK-1) | IC50 (LO2) | IC50 (CNE2/CDDP) | IC50 (CNE2) |
| --- | --- | --- | --- | --- | --- | --- |
| 186.2 to 187.4 °C | Cc1ccc(/C=C2\CC[C@@H]3[C@H]4CCCN5CCC[C@@H](CN3C2=S)[C@@H]45)s1 [3d, 14-((5-methylthiophen-2-yl)methylene)thiomatrine] | 121 ± 7.7 µM | 138 ± 9.4 µM | 138 ± 9.6 µM | 294 ± 20.1 µM | 92.4 ± 6.5 µM |
| 193.6 to 195 °C | Cc1ccsc1/C=C1\CC[C@@H]2[C@H]3CCCN4CCC[C@@H](CN2C1=S)[C@@H]34 [3e, 14-((3-methylthiophen-2-yl)methylene)thiomatrine] | 185 ± 12.4 µM | 180 ± 7.3 µM | 243 ± 12.7 µM | 452 ± 26.8 µM | 148 ± 5.6 µM |

From paper PMC7830115, “Design, Synthesis, Molecular Docking, and Tumor Resistance Reversal Activity Evaluation of Matrine Derivative with Thiophene Structure” (Molecules, 2021)
